Results on seven molecules are retold here after ChEMBL document CHEMBL1201862, “PubChem BioAssay data set” (2004).

Molecules are shown by their SMILES. The source made the active and inactive calls.

In test [1] the target is T1, E3 ubiquitin-protein ligase XIAP (Homo sapiens, UniProt P98170). In words: Counter Screen using XIAP-Bir3 for Chemical Antagonists of Bir1/2 domains of IAP-family anti-apoptotic proteins. [Related pubchem assays (depositor defined):AID1018, AID1449, AID1514, AID1638, AID1749, AID1750, AID488957, AID488963]. A general note: The purpose of a counterscreen is to sort out artefacts and off-target activity.

In test [2] the target is T1, E3 ubiquitin-protein ligase XIAP. Description: XIAP antagonists, biochemical, IAP family, fluorescence polarization (AID 1018). The test is classed as functional. On the technique in general: Polarisation of emitted light reports the rotation of a fluorescent probe.
Test [3] in a line: inhibition of K1F phage lysis, E. coli UTI89, bacterial capsule biogenesis inhibitors, alamar blue (AID 488966). The class given is functional. On the technique in general: Alamar Blue is a resazurin reagent that responds to reducing activity.
Test [4] deals with Envelope glycoprotein gp160 (Human immunodeficiency virus 1, UniProt Q6QLK5). In words: inhibitors of HIV fusion peptide binding, primary screen, biochemical, uHTS, fluorescence dequenching (AID 1986).
Test [5] concerns BJ. In words: cytotoxicity toward BJ-TERT fibroblasts, dose response, cell-based, RAS-independent, luminescence (AID 1933). As to conditions: Homo sapiens. The test is classed as functional.
Test [6] concerns BJ. In words: cells. The test is classed as functional, cell-based. As to conditions: Homo sapiens.
Test [7] concerns BJ. In words: cytotoxicity toward BJ-TERT-LT-ST fibroblasts, dose response, cell-based, RAS-independent, luminescence (AID 1935).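 Also: BJ fibroblasts immortalized with TERT plus LT and ST oncogenes.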 The test is classed as functional. As to conditions: Homo sapiens.
A short description of test [8]: cytotoxicity toward DRD oncogenic fibroblasts, dose response, cell-based, non-viral oncogenic, luminescence (AID 1934). The class given is functional. Particulars: Homo sapiens.
For another test, the target named is Genome polyprotein (dengue virus type 2, UniProt P29990). In words: Dengue-2 NS5 methyltransferase inhibitors, primary screen, biochemical, confirmation dose response (AID 588689). The class given is functional.
For test [9], the target named is Luciferin 4-monooxygenase (Photinus pyralis, UniProt P08659). In words: firefly luciferase enzyme inhibitors, dose response, biochemical, luminescence (AID 1891).
Test [10] is described as follows: Luminescence Cell-Based Dose Confirmation HTS to Identify Inhibitors of Platelet Dense Granule Release. [Related pubchem assays: 1663 (Primary HTS), 1678 (Summary of Project)]. The test is classed as functional.
In the next test the test system is Saccharomyces cerevisiae. Description: NALP1 inhibitor project selectivity study, Caspase-1/ASC signal blockade IC50 in S. cerevisiae (AID 488863). The class given is functional, organism-based.
Test [11] deals with NACHT, LRR and PYD domains-containing protein 1 (Homo sapiens, UniProt Q9C000). In words: NALP1 inhibitors in yeast, dose response, luminescent (AID 488860). The class given is functional.
A further test concerns the target Beta-galactosidase (Escherichia coli, UniProt Q8VNN2). In words: beta-galactosidase enzyme inhibitors and activators, dose response, artefact control for CCR6 antagonist project, biochemical, E. coli enzyme, set 3 (AID 504712). The class given is functional.
Test [12] in a line: Shn3 3'UTR reporter inhibitors, dose response, cell-based, Clone20 osteoblasts, firefly luciferase, cherry-picked (AID 624132).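 Also: firefly luciferase luminescence from reporter carrying the Shn3 3'UTR in osteoblasts.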 The class given is functional.
Test [13] is described as follows: HepG2 cell cytotoxicity, dose response, cytotoxicity control for Shn3 inhibitor project, CellTiter-Glo, cherry-picked (AID 624134). The class given is functional, cell-based.
The nature of test [14]: control 3'UTR Renilla luciferase suppression, dose response, counter-screen for Shn3 inhibitor project, cell-based, Clone20-Shn3RL, cherry-picked (AID 624133). The test is classed as functional.
A short description of test [15]: Fluorescence-based cell-based high throughput dose response assay for inhibitors of the interaction of nucleotide-binding oligomerization domain containing 2 (NOD2) and the receptor-interacting serine-threonine kinase 2 (RIPK2). The test is classed as functional. As to conditions: Homo sapiens.
The target in a further test is Beta Lactamase (Pseudomonas aeruginosa, UniProt Q932Y6). Description: beta-lactamase reporter inhibitor potency, dose response, artefact control for NOD2-RIPK2 interaction inhibitor project, BLA reporter cells, FRET fluorescence (AID 651552). The class given is functional, cell-based.
The test system of test [16] is HEK293. Description: NOD1 signaling inhibitors, primary screen, cell-based, luminescence, uHTS (AID 1578). The class given is functional. As to conditions: Homo sapiens.
The test system of test [17] is HEK293. Description: cells. The test is classed as functional, cell-based. As to conditions: Homo sapiens.
Test [18] concerns HEK293. Description: cells. The class given is functional, cell-based. As to conditions: Homo sapiens. The source holds these as a separate data set.
Test [19] relates to HEK293. Description: NOD2 signaling inhibitors in MDP-stimulated cells, cell-based, uHTS, luminescence (AID 2001). As to conditions: Homo sapiens. The class given is functional.
Another test deals with Tumor necrosis factor (Homo sapiens, UniProt P01375). Description: TNFa-triggered NF-kB activation inhibitors, SAR follow-up, cell-based, revised (AID 2337). The test is classed as functional.
Test [20] concerns the target T2, Nucleotide-binding oligomerization domain-containing protein 1 (Homo sapiens, UniProt Q9Y239).
T2 sequence (Q9Y239 whole entry): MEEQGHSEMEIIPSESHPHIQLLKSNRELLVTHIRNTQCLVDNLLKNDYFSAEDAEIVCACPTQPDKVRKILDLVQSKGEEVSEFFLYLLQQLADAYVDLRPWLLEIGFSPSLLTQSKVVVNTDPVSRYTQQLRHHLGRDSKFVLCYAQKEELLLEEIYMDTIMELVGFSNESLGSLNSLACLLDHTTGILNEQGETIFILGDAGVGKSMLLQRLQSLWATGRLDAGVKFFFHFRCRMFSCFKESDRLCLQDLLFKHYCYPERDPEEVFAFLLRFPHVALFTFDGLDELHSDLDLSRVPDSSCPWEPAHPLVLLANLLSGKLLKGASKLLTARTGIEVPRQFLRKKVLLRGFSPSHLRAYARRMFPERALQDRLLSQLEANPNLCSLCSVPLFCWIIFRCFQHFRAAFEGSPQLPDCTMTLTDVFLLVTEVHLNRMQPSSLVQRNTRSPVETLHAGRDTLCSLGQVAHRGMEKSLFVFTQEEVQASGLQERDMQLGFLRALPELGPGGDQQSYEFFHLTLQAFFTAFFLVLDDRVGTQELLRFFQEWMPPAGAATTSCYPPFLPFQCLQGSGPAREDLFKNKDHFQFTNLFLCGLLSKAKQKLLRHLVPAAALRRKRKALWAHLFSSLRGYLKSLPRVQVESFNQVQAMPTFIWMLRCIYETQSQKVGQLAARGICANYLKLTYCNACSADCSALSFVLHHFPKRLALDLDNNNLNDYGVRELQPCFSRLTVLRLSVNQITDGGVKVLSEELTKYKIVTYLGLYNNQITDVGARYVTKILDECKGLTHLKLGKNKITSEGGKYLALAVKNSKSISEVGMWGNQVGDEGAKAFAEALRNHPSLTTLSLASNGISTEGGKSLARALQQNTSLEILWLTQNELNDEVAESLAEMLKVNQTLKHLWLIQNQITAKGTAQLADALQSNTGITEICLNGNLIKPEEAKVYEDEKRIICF
Description: NOD1 signaling inhibitors, SAR follow-up, revised (AID 2333). The class given is functional.

In test [21] the target is Nucleotide-binding oligomerization domain-containing protein 2 (Homo sapiens, UniProt Q9HC29). In words: PubChem AID 2334. The class given is functional.
The subject of test [22] is HEK293. In words: cells. Particulars: Homo sapiens.
The target in test [23] is Intestinal-type alkaline phosphatase (Mus musculus, UniProt P24822). In words: PubChem AID 488874. The class given is functional.
The target of test [24] is T3, Intestinal-type alkaline phosphatase (Homo sapiens, UniProt P09923). In words: human intestinal alkaline phosphatase activators, dose response, biochemical, luminescence, uHTS hits (AID 463120). The class given is functional.
In test [25] the target is T3, Intestinal-type alkaline phosphatase. Description: human IAP activators, dose response, biochemical, luminescent, uHTS hits, set 2 (AID 488817).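 Also: potency of activators that raise enzyme activity.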 The test is classed as functional.
Test [26] concerns the target T4, Alkaline phosphatase, tissue-nonspecific isozyme (Homo sapiens, UniProt P05186).
T4 sequence (P05186 whole entry): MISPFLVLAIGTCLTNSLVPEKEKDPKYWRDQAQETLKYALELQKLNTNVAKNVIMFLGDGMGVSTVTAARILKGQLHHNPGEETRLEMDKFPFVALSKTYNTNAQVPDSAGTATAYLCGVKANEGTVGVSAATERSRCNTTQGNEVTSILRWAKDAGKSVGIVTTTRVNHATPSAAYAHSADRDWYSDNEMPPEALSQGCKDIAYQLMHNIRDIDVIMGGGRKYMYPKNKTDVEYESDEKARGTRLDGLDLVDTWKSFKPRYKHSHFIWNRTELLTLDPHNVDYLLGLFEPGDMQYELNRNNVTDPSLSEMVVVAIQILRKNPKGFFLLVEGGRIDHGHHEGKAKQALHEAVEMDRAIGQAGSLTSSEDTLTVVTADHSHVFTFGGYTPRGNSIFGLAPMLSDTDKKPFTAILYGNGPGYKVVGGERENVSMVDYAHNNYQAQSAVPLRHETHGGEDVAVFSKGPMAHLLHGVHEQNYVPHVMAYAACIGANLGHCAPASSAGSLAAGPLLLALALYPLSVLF
Description: TNAP enzyme activators, dose response, selectivity assay for human IAP activator project, biochemical, TNAP isozyme, human IAP uHTS hits (AID 488886).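 Also: potency of compounds raising TNAP activity as a selectivity check on IAP activators.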 The class given is functional.

The target in test [27] is Eukaryotic translation initiation factor 4H (Homo sapiens, UniProt Q15056). In words: eIF4H inhibition in translation initiation, SAR follow-up (AID 435011). The test is classed as functional.
The target of test [28] is Polyadenylate-binding protein 1 (Homo sapiens, UniProt P11940). Description: PABP inhibition in translation initiation, SAR follow-up (AID 435018). The test is classed as functional.
Test [29] has as its target DNA dC->dU-editing enzyme APOBEC-3A (Homo sapiens, UniProt P31941). Description: APOBEC3A DNA deaminase inhibitors, dose response, biochemical (AID 504722). The test is classed as functional.
Test [30] deals with DNA dC->dU-editing enzyme APOBEC-3G (Homo sapiens, UniProt Q9HC16). In words: Dose Response confirmation of small molecule APOBEC3G DNA Deaminase Inhibitors via a fluorescence-based single-stranded DNA deaminase assay. [Related pubchem assays (depositor defined):AID493012, AID493028]. The test is classed as functional.

T3 sequence (P09923 whole entry): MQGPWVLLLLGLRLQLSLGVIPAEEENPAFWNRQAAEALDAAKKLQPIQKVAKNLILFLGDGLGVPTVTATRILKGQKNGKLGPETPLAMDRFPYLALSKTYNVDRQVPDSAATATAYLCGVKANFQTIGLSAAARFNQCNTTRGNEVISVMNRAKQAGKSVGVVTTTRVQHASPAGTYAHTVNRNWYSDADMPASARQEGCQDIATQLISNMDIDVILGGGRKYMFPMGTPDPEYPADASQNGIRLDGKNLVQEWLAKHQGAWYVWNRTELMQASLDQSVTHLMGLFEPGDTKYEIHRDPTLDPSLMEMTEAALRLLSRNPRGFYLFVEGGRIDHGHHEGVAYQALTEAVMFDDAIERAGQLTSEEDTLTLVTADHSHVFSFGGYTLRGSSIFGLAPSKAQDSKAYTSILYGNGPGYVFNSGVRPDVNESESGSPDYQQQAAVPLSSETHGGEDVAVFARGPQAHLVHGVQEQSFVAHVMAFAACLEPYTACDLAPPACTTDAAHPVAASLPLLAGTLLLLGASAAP
T1 sequence (P98170 whole entry): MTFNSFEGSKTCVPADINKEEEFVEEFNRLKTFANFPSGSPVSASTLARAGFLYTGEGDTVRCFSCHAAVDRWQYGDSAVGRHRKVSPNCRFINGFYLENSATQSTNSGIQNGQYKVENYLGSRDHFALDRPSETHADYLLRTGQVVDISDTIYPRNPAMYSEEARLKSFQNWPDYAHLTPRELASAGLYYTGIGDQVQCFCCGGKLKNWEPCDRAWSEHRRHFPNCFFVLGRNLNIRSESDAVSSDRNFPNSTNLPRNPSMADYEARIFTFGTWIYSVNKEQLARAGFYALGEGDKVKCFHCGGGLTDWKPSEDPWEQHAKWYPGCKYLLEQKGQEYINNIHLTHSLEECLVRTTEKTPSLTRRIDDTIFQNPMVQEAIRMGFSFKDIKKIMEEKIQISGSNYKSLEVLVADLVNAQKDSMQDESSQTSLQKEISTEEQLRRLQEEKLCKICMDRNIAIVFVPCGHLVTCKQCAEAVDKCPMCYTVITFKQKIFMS
Sequence of Nucleotide-binding oligomerization domain-containing protein 2 (Q9HC29 whole entry, the tested form may be a part): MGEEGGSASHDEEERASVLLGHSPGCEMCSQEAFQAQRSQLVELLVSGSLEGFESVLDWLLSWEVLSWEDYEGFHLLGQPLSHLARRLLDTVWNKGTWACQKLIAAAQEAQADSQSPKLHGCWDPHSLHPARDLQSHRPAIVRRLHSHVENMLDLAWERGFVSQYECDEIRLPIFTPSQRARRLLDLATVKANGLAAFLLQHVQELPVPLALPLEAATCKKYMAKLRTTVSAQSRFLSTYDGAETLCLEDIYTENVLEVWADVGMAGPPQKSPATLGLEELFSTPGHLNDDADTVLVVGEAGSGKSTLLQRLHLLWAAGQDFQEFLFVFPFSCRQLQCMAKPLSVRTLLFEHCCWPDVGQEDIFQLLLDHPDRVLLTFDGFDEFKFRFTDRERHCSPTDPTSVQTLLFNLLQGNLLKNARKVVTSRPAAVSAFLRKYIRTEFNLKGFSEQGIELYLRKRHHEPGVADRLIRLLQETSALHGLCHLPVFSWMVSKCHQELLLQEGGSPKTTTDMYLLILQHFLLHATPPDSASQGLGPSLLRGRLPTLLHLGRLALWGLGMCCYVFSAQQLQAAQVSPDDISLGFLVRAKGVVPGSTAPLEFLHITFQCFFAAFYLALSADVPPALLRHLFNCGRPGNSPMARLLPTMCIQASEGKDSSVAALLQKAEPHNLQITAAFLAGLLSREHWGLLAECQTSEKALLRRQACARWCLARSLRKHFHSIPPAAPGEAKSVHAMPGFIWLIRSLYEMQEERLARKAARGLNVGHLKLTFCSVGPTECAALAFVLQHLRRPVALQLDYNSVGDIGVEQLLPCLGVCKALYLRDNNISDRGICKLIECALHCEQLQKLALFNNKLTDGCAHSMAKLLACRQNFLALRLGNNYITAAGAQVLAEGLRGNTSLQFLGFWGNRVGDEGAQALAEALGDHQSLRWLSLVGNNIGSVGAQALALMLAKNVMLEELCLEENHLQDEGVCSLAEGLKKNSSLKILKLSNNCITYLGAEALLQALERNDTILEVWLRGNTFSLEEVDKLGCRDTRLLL
Sequence of Envelope glycoprotein gp160 (Q6QLK5 whole entry, the tested form may be a part): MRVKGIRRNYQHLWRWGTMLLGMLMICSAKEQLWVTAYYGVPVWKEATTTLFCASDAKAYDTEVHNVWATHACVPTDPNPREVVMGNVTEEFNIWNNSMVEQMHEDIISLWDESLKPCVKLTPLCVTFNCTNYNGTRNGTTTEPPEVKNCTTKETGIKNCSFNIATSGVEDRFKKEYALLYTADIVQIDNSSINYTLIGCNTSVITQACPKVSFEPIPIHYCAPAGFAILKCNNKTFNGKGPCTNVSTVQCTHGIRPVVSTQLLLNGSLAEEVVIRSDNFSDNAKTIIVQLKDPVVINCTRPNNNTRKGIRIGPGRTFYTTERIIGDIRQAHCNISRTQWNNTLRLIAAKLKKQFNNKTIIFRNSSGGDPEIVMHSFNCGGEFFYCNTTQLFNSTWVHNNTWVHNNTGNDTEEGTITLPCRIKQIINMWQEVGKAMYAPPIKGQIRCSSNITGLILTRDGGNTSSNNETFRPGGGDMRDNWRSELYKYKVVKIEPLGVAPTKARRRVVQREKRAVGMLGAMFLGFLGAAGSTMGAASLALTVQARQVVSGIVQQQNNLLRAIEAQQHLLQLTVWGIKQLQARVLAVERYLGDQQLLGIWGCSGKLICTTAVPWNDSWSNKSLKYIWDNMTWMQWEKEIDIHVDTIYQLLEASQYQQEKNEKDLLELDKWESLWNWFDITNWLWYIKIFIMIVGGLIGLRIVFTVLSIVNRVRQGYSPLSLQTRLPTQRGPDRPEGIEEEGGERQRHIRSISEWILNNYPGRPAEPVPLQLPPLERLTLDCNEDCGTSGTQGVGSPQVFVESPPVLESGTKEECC
Sequence of Beta Lactamase (Q932Y6 whole entry): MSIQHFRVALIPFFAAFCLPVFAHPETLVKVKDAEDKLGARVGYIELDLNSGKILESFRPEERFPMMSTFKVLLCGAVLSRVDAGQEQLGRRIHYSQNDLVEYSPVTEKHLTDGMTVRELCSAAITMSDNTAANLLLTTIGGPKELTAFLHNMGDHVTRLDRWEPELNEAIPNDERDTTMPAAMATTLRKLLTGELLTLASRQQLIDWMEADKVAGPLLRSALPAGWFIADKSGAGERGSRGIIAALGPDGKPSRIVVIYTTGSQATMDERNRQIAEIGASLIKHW
Sequence of Polyadenylate-binding protein 1 (P11940 whole entry): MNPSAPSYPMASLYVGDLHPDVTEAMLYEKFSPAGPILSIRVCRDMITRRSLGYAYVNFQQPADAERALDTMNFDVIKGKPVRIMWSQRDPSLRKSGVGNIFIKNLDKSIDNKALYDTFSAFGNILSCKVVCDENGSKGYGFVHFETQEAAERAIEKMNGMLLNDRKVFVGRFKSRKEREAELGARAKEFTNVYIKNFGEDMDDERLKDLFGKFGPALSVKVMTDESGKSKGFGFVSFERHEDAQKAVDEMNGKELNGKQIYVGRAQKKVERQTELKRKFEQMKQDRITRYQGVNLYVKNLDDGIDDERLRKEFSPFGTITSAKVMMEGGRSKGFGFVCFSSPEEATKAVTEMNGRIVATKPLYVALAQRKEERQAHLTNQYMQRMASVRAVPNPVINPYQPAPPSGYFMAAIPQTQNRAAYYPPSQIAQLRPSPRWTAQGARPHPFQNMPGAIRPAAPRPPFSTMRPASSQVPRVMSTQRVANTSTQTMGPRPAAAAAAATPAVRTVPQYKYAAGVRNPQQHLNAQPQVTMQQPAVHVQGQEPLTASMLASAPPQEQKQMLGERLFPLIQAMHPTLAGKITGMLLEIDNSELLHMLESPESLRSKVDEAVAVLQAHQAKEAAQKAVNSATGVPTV
Sequence of DNA dC->dU-editing enzyme APOBEC-3A (P31941 whole entry): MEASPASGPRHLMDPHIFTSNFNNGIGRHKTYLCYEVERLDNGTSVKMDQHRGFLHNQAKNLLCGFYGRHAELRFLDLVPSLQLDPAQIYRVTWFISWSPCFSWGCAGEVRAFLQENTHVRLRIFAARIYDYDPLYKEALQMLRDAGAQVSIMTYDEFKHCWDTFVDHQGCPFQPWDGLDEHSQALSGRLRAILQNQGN
Sequence of Luciferin 4-monooxygenase (P08659 whole entry): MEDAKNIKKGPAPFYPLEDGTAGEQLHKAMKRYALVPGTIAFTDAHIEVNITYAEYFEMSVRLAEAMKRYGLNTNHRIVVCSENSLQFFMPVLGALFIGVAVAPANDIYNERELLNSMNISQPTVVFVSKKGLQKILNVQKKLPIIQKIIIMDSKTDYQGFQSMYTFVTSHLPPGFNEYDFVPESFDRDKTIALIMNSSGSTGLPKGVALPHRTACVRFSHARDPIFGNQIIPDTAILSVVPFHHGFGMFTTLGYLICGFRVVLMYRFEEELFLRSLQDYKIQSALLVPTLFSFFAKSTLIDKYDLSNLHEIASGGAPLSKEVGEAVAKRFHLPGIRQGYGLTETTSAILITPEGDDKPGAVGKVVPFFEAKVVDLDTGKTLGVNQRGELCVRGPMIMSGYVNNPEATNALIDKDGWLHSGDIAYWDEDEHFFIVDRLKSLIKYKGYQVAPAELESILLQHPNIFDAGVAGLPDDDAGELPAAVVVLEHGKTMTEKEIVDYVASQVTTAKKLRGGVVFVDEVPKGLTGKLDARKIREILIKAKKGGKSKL

Turning to `COc1ccc(-c2nnc(NC(=O)c3cc(C)on3)s2)cc1`, the IC50 – broadly, the midpoint of a concentration-inhibition curve – is > 100 µM (inactive) in [1], > 100 µM (not active) in [2] and > 75 µM (active) in test [3].
As to `O=C(O)CCN1C(=O)/C(=C\c2cccc(Oc3ccccc3)c2)SC1=S`, the values for the IC50 (in [4]; on Genome polyprotein) were 26.8 µM (active) and 37.4 µM (active), respectively. Also, the EC50 (commonly the concentration at which the effect is half-maximal) in the test with BJ [5] was > 150 µM (not active); in the test with BJ [6], > 150 µM (not active); with BJ [7], > 150 µM (inconclusive); in [8], > 150 µM (not active).
Consider `O=C1CC(Sc2nnnn2-c2ccccc2)C(=O)N1c1cccc(Cl)c1` (stereo not given), for which the EC50 was > 112 µM (not active) in [9] and 19.1 µM (active) in [10]. Moreover, the IC50 with Saccharomyces cerevisiae is 5.13 µM (active); in test [11], 5.83 µM (active); at Beta-galactosidase it was > 66.6 µM (inactive); in test [15] it was 2.81 µM (active); at Beta Lactamase, 12.6 µM (inactive). Moreover, the results for the half-maximal activity concentration (AC50) in test [12], in [13] and in test [14] were 8.53 µM (active), 24.5 µM (active) and 8.88 µM (active), respectively.
Take `NC(=O)C1CCN(c2ccc(S(=O)(=O)N3CCC(Cc4ccccc4)CC3)cn2)CC1`: the EC50 in the test with HEK293 [16] is 4.32 µM (active). The IC50 in the test on HEK293 [17] is > 20 µM (inactive); in the test with HEK293 [18] it was > 20 µM (inactive); with HEK293 [19], > 20 µM (inactive); on Tumor necrosis factor, 12.4 µM (active); in test [20], 5.76 µM (active); in [21] it was 9.14 µM (active). Besides, the IC50 with HEK293 [22] is > 20 µM (inactive).
Take `CN(Cc1ccccc1)C(=O)c1nc[nH]c1C(=O)Nc1nccs1`: in [23], the half-maximal inhibitory concentration (IC50) is 74.8 µM (active). The concentration giving a half-maximal response (EC50) is 10.1 µM (active) in test [24], 15.8 µM (active) in test [25] and 16.6 µM (active) in test [26].
As for `COc1cc(/C=N\NC(=O)c2ccccc2O)ccc1OCC(=O)Nc1ccc(C)c(C)c1`, the values for the half-inhibitory concentration (IC50) in test [27] and in [28] were 34.6 µM (active) and > 100 µM (inactive), respectively.
For the molecule `O=[N+]([O-])c1ccccc1/C=N/n1c(S)nnc1-c1ccccc1`, the results for the IC50 in test [29] and in [30] were > 100 µM (inactive) and 4.25 µM (active), respectively.
